Read-outs that look alike come from different tables or passages of the source.
Target: trypsin (Sus scrofa, UniProt P00761)
Assay: casein digestion protease inhibition assay, absorbance at […] nm
Assay type: biochemical
[1] = read-out: IC50 (mg/mL) * (converted)

Chain of trypsin (P00761 9-231): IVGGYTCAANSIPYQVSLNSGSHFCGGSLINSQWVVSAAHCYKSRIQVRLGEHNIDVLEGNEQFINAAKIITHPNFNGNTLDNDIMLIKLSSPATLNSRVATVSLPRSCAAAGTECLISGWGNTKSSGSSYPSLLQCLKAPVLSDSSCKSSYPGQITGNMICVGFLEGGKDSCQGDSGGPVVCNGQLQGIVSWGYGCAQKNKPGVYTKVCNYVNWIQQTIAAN

Row | IC50 [1] [µM] | SMILES | IC50 [µM]
1 | 102 | O=C(COc1ccccc1C(=O)Nc1ccccc1Br)NN=Cc1cc(Br)ccc1O [HN, 2-(5-bromo-2-hydroxy-benzylidene-hydrazinocarbonylmethoxy)-N-(2-bromo-phenyl)-benzamide] | 
2 | 171 | NNC(=O)COc1ccccc1C(=O)Nc1ccccc1Br [HD, N-(2-bromo-phenyl)-2-hydrazinocarbonylmethoxy-benzamide] | 
3 | 115 | CCOC(=O)COc1ccccc1C(=O)Nc1ccccc1Br [EE, [2-(2-bromophenylcarbamoyl)phenoxy]acetic acid ethyl ester] | 
4 |  | CC(=O)Oc1ccccc1C(=O)O [acetylsalicylic acid, reference compound] | 2250

Source: paper PMC12300325, “Antimicrobial and Anti-Inflammatory Activity of N-(2-Bromo-phenyl)-2-hydroxy-benzamide Derivatives and Their Inclusion Complexes” (Pharmaceutics, 2025)
